Patent publication US20050148656A1, “Carboxylic derivates” (priority 2003, published 2005)
pEC50: −log10 of the molar value.

What was measured:
human PPARα = biological target: T1, human PPARα (Homo sapiens, UniProt Q07869); assay: Luciferase reporter assay in transiently transfected cells, PPARα activation; assay type: cell-based; settings: 50% of maximal activation obtained by reference compound (ETYA); about 24 hours exposure
T1 construct: expressed in transfected cells
T1 sequence (Q07869 1-468): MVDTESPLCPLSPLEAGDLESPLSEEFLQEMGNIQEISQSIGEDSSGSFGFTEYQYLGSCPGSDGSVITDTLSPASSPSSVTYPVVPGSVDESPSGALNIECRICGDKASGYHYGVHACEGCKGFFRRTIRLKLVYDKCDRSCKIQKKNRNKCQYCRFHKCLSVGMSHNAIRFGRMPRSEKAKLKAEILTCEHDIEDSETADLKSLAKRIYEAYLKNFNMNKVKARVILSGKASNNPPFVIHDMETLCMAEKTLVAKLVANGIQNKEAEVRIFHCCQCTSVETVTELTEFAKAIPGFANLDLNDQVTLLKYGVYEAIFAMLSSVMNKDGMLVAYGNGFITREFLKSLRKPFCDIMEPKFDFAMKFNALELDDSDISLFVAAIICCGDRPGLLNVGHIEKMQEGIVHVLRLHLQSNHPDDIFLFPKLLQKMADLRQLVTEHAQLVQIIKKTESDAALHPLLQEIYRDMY
Procedure: (§1) The compounds of the invention were tested in the assays described in WO 03/051821.
(§2) Stock solutions of compounds in DMSO were diluted in appropriate concentration ranges in master plates. From master plates, compounds were diluted in culture media to obtain test compound solutions for final doses.
(§3) After adjustment of the amount of cell medium to 75 μl in each well, 50 μl test compound solution was added. Transiently transfected cells were exposed to compounds for about 24 hours before the luciferase detection assay was performed. For luciferase assays, 100 μl of assay reagent was added manually to each well and plates were left for approximately 20 minutes in order to allow lysis of the cells. After lysis, luciferase activity was measured in a 1420 Multiwell counter, Victor, from Wallach.
(§4) The TZD pioglitazone was used as reference substance for activation of both human and murine PPARγ. 5,8,11,14-Eicosatetrayonic acid (ETYA) was used as reference substance for human PPARα.
(§5) For calculation of EC50 values, a concentration-effect curve was established. Values used were derived from the average of two or three independent measurements (after subtraction of the background average value) and were expressed as the percentage of the maximal activation obtained by the reference compound. Values were plotted against the logarithm of the test compound concentration. EC50 values were estimated by linear […] between the data points and calculating the concentration required to achieve 50% of the maximal activation obtained by the reference compound.

PPARγ = assay: Luciferase reporter assay in transiently transfected cells, PPARγ activation; assay type: cell-based, human and murine
Procedure: as §1, §2, §3, §4, §5

| pEC50 (human PPARα) | Compound | ratio EC50 (PPARγ):EC50 (PPARα) (PPARγ) |
| --- | --- | --- |
| 8.52 | CCO[C@@H](Cc1ccc(OCC(=O)N(Cc2ccc(Cl)cc2)Cc2ccc(Cl)cc2)cc1)C(=O)O [Example 12, (2S)-3-(4-{2-[bis(4-Chlorobenzyl)amino]-2-oxoethoxy}phenyl)-2-ethoxypropanoic acid] | >1000 |
| 8.10 | CCO[C@@H](Cc1ccc(OCC(=O)N(Cc2ccc(Cl)cc2)Cc2ccc(C(C)(C)C)cc2)cc1)C(=O)O [Example 13, (2S)-3-(4-{2-[(4-tert-Butylbenzyl)(4-chlorobenzyl)amino]-2-oxoethoxy}phenyl)-2-ethoxypropanoic acid] | >400 |
| 8.52 | CCO[C@@H](Cc1ccc(OCC(=O)N(Cc2ccc(C(F)(F)F)cc2)Cc2ccc(C(F)(F)F)cc2)cc1)C(=O)O [Example 15, (2S)-3-[4-(2-{bis[4-(Trifluoromethyl)benzyl]amino}-2-oxoethoxy)phenyl]-2-ethoxypropanoic acid] | >900 |
